The source made the active and inactive calls. How the calls were made is not given here.
Each compound was assayed against glutathione S-transferase (GST-GSH binding) (assay: GST–glutathione interaction disruption – biochemical, multiplex beads, flow cytometry, HPSMTB buffer, profiling panel (AID 1324;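 further: glutathione beads loaded with GST-green fluorescent protein and no fluorescent Bim peptide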)). Conditions: multiplex bead flow cytometry, MCF.

Row | Structure (SMILES) | EC50
1 | CN(/N=C/C=C/c1ccccc1)C1=NS(=O)(=O)c2ccccc21 | 2520 nM
2 | O=[N+]([O-])c1ccc(N/N=C/c2ccc(O)c(O)c2O)c(S(=O)(=O)N2CCOCC2)c1 | inactive
3 | COc1cc2[nH]c(=S)nc(NCCc3ccc(S(N)(=O)=O)cc3)c2cc1OC | 3630 nM
4 | CN1CCN(C2=C(Cl)C(=O)C(c3cnc(N4CCCCC4)s3)=C(Cl)C2=O)CC1 | 220 nM
5 | Cc1ccc(Nc2nc(-c3c(C)nc4ncccn34)cs2)cc1 | inactive

Same assay, conditions: multiplex bead flow cytometry, MCF, stronger effect = higher value, concentration not given here

Row | Structure (SMILES) | percent span inhibition
6 | COc1cc(/C=C2\CC/C(=C\c3cc(OC)c(O)c(OC)c3)C2=O)cc(OC)c1O | inactive
7 | CC(C)(C)c1nc(NCCN2CCOCC2)c2nnn(Cc3ccccc3Cl)c2n1 | inactive
8 | CCN1C(=O)/C(=C\C=C2/C=CC=CN2CC)SC1=S | inactive
9 | Cc1cc2nc(/C(C#N)=C/c3ccncc3)[nH]c2cc1C | inactive
10 | COc1ccc2nc(C)cc(SCC(=O)N/N=C/c3ccc(O)cc3O)c2c1 | inactive
11 | Cc1ccc(C)c(N2CCN(C(=S)Nc3ccc4nc(N5CCN(C)CC5)cc(C)c4c3)CC2)c1 | inactive
12 | COc1ccc(NS(=O)(=O)c2cc(NC(=O)c3ccc(C)o3)ccc2N2CCCCC2)cc1 | inactive
13 | CCc1nnc(NC(=O)CSc2nnc(COc3ccc(C)cc3)n2-c2ccccc2)s1 | inactive
14 | O=C(O)CC1S/C(=N/N=C/C=C/c2ccccc2[N+](=O)[O-])NC1=O (centres undefined) | inactive
15 | BrC(=C\c1ccccc1)/C=N/N1CCN(c2ccccc2)CC1 | inactive
16 | O=C(Nc1cccc(-c2ccc3nncn3n2)c1)c1ccco1 | inactive
17 | O=C1Nc2ccc([N+](=O)[O-])cc2OC1CCN1CCN(Cc2ccc3c(c2)OCO3)CC1 (centres undefined) | inactive
18 | Cc1ccc(NC2=C(Cl)C(=O)c3ccccc3C2=O)cc1 | inactive
19 | CCN(CC)c1ccc(NC(=O)c2ccccc2Br)cc1S(=O)(=O)Nc1ccccc1OC | inactive
20 | O=[N+]([O-])c1ccc2[nH]nc(-c3ccccc3)c2c1 | inactive
21 | COc1ccc(OC)c(Nc2ccc(C(=O)O)cc2[N+](=O)[O-])c1 | inactive
22 | Cc1ccc(/C=C/C(=O)c2ccccc(=O)c2O)cc1C | inactive
23 | S=c1[nH]cc(-c2ccccc2)n1-c1ccccc1Cl | inactive
24 | c1csc(C2=Nn3c(nnc3-c3ccncc3)SC2)c1 | inactive
25 | Cc1cc(N2CCN(C)CC2)nc2ccc(NC(=S)N3CCC4(CC3)OCCO4)cc12 | inactive
26 | Cc1ccc(Nc2nc(CSc3nnc(-c4cccnc4)n3-c3ccccc3C)cs2)cc1 | inactive
27 | CCCCOC(=O)c1nc(Cl)c(Cl)c(N)c1Cl | inactive
28 | Cc1ccc(-c2ccc(/C=C3\SC(N4CCOCC4)=NC3=O)o2)cc1 | inactive
29 | CCN(CC)c1ccc(NC(=O)c2ccc(=O)[nH]c2)cc1S(=O)(=O)Nc1ccccc1OC | inactive

Row | Structure (SMILES) | percent span inhibition
30 | O=C(Nc1cccc(C(F)(F)F)c1)c1ccc2nc(-c3ccco3)c(-c3ccco3)nc2c1 | inactive
31 | CCOC(=O)c1sc(N)c(C(=O)Nc2ccccc2OC)c1C | inactive
32 | Cc1ccc(N=c2ssnc2Cl)cc1 | inactive
33 | CCN(CC)c1ccc(NC(=O)c2ccccc2)cc1S(=O)(=O)Nc1ccccc1OC | inactive
34 | COc1cccc2c(SCC(=O)N/N=C/c3ccccc3)cc(C)nc12 | inactive
35 | Cc1ccc(-c2cc(-c3ccccc3)c(C#N)c(N)n2)o1 | inactive
36 | CCC(CC)C(=O)Nc1cccc(SC)c1 | inactive
37 | COCCNC(=O)CN1CCC(NC(=O)Nc2ccccc2)CC1 | inactive
38 | CCCOc1ccc(-c2c(C(=O)N/N=C/c3ccc(OC)cc3)nnn2-c2nonc2N)cc1 | inactive
39 | Cc1ccc(C)c(Oc2ncnc(N)c2[N+](=O)[O-])c1 | inactive
40 | O=C(c1cc2ccccc2oc1=O)N(c1ccccc1)C1C=CS(=O)(=O)C1 (centres undefined) | inactive
41 | COc1ccc(NC(=O)c2ccc(CN3CCN(c4ccccc4)CC3)cc2)cc1 | inactive
42 | CCc1ccc(/C=C/C(=O)c2cc(Br)ccc(=O)c2O)cc1 | inactive
43 | Cn1c(=O)c2cc(S(=O)(=O)Nc3cc(C(=O)O)cc(C(=O)O)c3)ccc2n(C)c1=O | inactive
44 | O=S1(=O)N=C(N(CCO)/N=C/c2ccccc2)c2ccccc21 | inactive
45 | Cc1ccccc1OCC(=O)N/N=C/c1ccccn1 | inactive
46 | Cc1ccc2c(c1)c(C)c(C)n2CC(O)Cn1nc(C)c(Br)c1C (centres undefined) | inactive
47 | Cc1nnc(Sc2cc(NCCO)c([N+](=O)[O-])c3nonc23)s1 | inactive
48 | COc1ccc(-n2c(NC(=O)c3ccco3)c(C#N)c3nc4ccccc4nc32)cc1 | inactive
49 | N#Cc1ccc(N=c2ssnc2Cl)cc1 | inactive
50 | CCOc1ccc(-n2cc(-c3ccc(OC)c(OC)c3)[nH]c2=S)cc1 | inactive
51 | Cc1ccc(-c2ccc(/C=C/C(=O)c3ccccc3)o2)cc1 | inactive
52 | O=C(Nc1ccccc1)c1ccc2nc(-c3ccco3)c(-c3ccco3)nc2c1 | inactive
53 | CCc1nnc(NS(=O)(=O)c2ccc(N=CC3=C(O)CC(C)(C)CC3=O)cc2)s1 | inactive

Row | Structure (SMILES) | percent span inhibition
54 | N#Cc1cc(-c2ccccc2)nn1-c1ccccc1 | inactive
55 | COc1ccc(C2CN(C)CC2C(=O)c2ccc(F)cc2)cc1Cl (centres undefined) | inactive
56 | O=C(/C=C/c1ccccc1Cl)c1ccccc(=O)c1O | inactive
57 | Cc1ccc(N=C2NC(=O)/C(=C/C=C/c3ccco3)S2)cc1 | inactive
58 | CCOc1ccccc1CNc1ccc(O)cc1 | inactive
59 | CCN1CCN(c2ccc(NC(=O)c3ccc4c(c3)[nH]c(=O)n4Cc3ccc(OC)cc3)cc2)CC1 | inactive
60 | Cc1ccc(NC(=O)CSc2nc3ccccc3c(=O)n2CCCN2CCCCC2)cc1Cl | inactive
61 | Cc1ccc(C)c(NC(=O)C(=O)NCc2ccccn2)c1 | inactive
62 | Nc1ccc(C2=Nc3cccc4cccc(c34)N2)cc1 | inactive
63 | COc1c(F)c(F)c(C(=O)Nc2ccccc2N2CCN(C(=O)C(C)C)CC2)c(F)c1F | inactive
64 | COc1ccc(C)cc1-n1c(=O)c2ccccc2c2ccccc2c1=O | inactive
65 | O=[N+]([O-])c1ccc(-c2cn(-c3ccc(Cl)cc3)c(=S)[nH]2)cc1 | inactive
66 | Cc1ccc(C(=O)/C=C/c2ccc(-c3ccc(C)cc3)o2)cc1 | inactive
67 | CC(=O)N1CCN(C(=O)c2ccc(-n3c(C)ccc3C)cc2)CC1 | inactive
68 | C=CCN1C(=O)/C(=C/c2ccsc2)SC1=S | inactive
69 | CCN1/C(=C/c2ccc3cc(C)cc(C)c3[n+]2CC)Sc2cc(C)ccc21 | inactive
70 | CCNCc1cc(Br)c(OCC(=O)Nc2ccccc2)c(OC)c1 | inactive
71 | CNc1nc2ccccc2n1/N=C/c1cccc(OC)c1OC | inactive
72 | CCc1cccc(CC)c1NC(=S)N1CCn2cccc2C1c1cccnc1 (centres undefined) | inactive
73 | CCC(=O)OCCNc1cc(Sc2nc3ccccc3[nH]2)c2nonc2c1[N+](=O)[O-] | inactive
74 | COc1ccc(CC(=O)Nc2ccc(C(=O)Nc3nccs3)cc2)cc1OC | inactive
75 | CC(C)c1ccc(C2CC(c3ccc(Br)cc3)=NN2C(N)=S)cc1 (centres undefined) | inactive
76 | O=C(/C=C/c1ccc(-c2ccccc2[N+](=O)[O-])o1)c1ccc(F)cc1 | inactive
77 | CC(C)=C1C(=O)NN(c2ccc(C)c(Cl)c2)C1=O | inactive

Row | Structure (SMILES) | percent span inhibition
78 | CC1(C)CC(NC(=O)COc2ccc([N+](=O)[O-])cc2)CC(C)(C)N1 | inactive
79 | O=C(CSc1nnc(Cc2ccccc2)o1)NCc1ccco1 | inactive
80 | CC1(C)SC(=S)N(NC(=O)Nc2ccccc2)C1N(O)C(=O)Nc1cccc2ccccc12 (centres undefined) | inactive
81 | C=CCn1c(C)c(C(C)=O)c(N2CCOCC2)nc1=S | inactive
82 | O=C(CCc1ccccc1)N1CCN(c2ccccn2)CC1 | inactive
83 | CSc1ccccc1NC(=O)CN(C)CC(=O)Nc1ccc(N2CCOCC2)cc1 | inactive
84 | COc1ccc(CN(C)CC(=O)NC(C)c2ccccc2)c(OC)c1 (centres undefined) | inactive
85 | O=C(Oc1ccc(-c2cnc3ccccc3n2)cc1)c1cccc([N+](=O)[O-])c1 | inactive
86 | COc1ccc(-n2cc(-c3ccc(OC)c(OC)c3)[nH]c2=S)cc1 | inactive
87 | CCOc1ccccc1C(=O)NC1CC2CCCC(C1)N2C1CC1 (centres undefined) | inactive
88 | O=[N+]([O-])c1ccc(N2CCN(c3ccc(O)cc3)CC2)c(Cl)c1 | inactive
89 | Cc1ccc(NN2C(=O)C=CC2=O)cc1 | inactive
90 | Oc1ccc(NCc2ccccc2OCc2ccccc2)cc1 | inactive
91 | O=C(Cc1ccccc1)OCCNC(=O)c1cccnc1 | inactive
92 | O=C1/C(=C/c2cccs2)Sc2ccccc21 | inactive
93 | Cc1cccc(NC(=S)N2CCn3cccc3C2c2cccnc2)c1 (centres undefined) | inactive
94 | COc1cccc(/C=N/NC(=O)c2cc3cc([N+](=O)[O-])ccc3s2)c1O | inactive
95 | COc1ccccc1-n1c(-c2ccc(Cl)cc2)c[nH]c1=S | inactive
96 | CC(C)(C)NC(=O)COc1ccc(CNc2ccc3[nH]c(=O)[nH]c3c2)cc1 | inactive
97 | CCN1CCN(c2cc(C)c3cc(NC(=S)N4CCN(c5ccc(F)cc5)CC4)ccc3n2)CC1 | inactive
98 | S=C(Nc1ccc(N2CCOCC2)cc1)Nc1ccc2nc(-c3ccco3)c(-c3ccco3)nc2c1 | inactive
99 | O=C(COC(=O)CCCN=C1NS(=O)(=O)c2ccccc21)NC(=O)NC1CCCC1 | inactive

— PubChem BioAssay AID1324 (NMMLSC, 2008)
